Assay results as given in PMC6544337, “Development of chimeric and bifunctional antagonists for CLR/RAMP receptors” (PLoS ONE, 2019).

Tests used:
[1] = target: CLR/RAMP2 receptor complex (UniProt Q16602)
[2] = target: CLR/RAMP1 receptor complex (UniProt Q16602)
[3] = target: CLR/RAMP2 receptor complex (UniProt Q16602); remark: listed apart in the source
CLR/RAMP2 = CLR/RAMP2 (Homo sapiens, UniProt O60895+Q16602); assay: CLR/RAMP2 PathHunter β-arrestin assay, agonist mode; assay type: cell-based; conditions: for CLR/RAMP2 Max Activity % of control: agonist mode, positive control ADM, CHO-K1 cells
Sequence of CLR/RAMP2 (Q16602 23-461): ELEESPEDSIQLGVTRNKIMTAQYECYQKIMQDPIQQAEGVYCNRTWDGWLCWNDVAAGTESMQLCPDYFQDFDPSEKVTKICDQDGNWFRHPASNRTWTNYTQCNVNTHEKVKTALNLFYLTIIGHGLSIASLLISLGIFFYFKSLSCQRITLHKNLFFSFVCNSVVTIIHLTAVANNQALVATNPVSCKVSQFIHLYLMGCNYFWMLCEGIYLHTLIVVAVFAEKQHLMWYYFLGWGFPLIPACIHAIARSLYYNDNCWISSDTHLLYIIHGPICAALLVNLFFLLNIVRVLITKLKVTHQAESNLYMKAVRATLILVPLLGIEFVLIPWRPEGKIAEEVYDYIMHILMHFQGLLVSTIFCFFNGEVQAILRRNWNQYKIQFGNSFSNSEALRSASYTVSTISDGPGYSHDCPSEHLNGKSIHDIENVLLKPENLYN
Sequence of CLR/RAMP2 (O60895 43-175): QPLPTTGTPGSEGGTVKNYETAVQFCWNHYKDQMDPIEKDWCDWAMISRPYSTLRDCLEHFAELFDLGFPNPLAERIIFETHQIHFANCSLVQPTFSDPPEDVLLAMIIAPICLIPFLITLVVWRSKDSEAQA
Description: (§1) The bioactivity of synthetic analogs was studied using cells that stably express CLR/RAMP1 (1321N1 cells) or CLR/RAMP2 (CHO-K1 cells) receptors using CLR/RAMP1 cAMP and CLR/RAMP2 arrestin assays from DiscoveRx (Fremont, Ca). In receptor-activation assays, the dose-dependent stimulatory response was studied in duplicate, at 10 different concentrations.
The CLR/RAMP2 signaling was assayed using the CLR/RAMP2 PathHunter β-Arrestin assay. In this assay, the GPCR was fused in frame with a small enzyme donor fragment ProLink (PK) and co-expressed in cells stably expressing a fusion protein of β-arrestin and an N-terminal deletion mutant of β-galactosidase (i.e., enzyme acceptor or EA). Activation of the CLR/RAMP2 stimulates binding of β-arrestin to the PK-tagged receptor and leads to an increase in enzyme activity that can be measured using chemiluminescent PathHunter Detection Reagents. PathHunter cell lines were seeded in white walled, 384-well microplates and incubated at 37C prior to testing. For agonist determination, intermediate dilution of sample stocks was performed to generate 5X sample in assay buffer, and 5 μl of 5X sample was added to cells and incubated at 37C for 90 minutes. Vehicle concentration was 1%. For antagonistic activity determination, cells were pre-incubated with antagonist followed by agonist challenge at the EC80 concentration.

CLR/RAMP1 = CLR/RAMP1 (Homo sapiens, UniProt O60894+Q16602); assay: CLR/RAMP1 cAMP assay, agonist mode (DiscoveRx HitHunter cAMP XS+); assay type: cell-based; conditions: for CLR/RAMP1 Max Activity % of control: agonist mode, positive control CGRP, 1321N1 cells
Sequence of CLR/RAMP1 (Q16602 23-461): as the sequence (Q16602 23-461) above
Sequence of CLR/RAMP1 (O60894 27-148): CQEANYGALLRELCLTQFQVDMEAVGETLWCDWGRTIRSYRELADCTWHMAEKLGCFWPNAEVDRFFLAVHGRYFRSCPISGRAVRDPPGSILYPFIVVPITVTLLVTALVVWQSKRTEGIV
Description: as §1
For the analysis of signaling in CLR/RAMP1-expressing cells, cAMP Hunter cell lines were expanded from freezer stocks, and cells were seeded in white walled, 384-well microplates and incubated at 37C for the appropriate time. The activity was determined using the DiscoveRx HitHunter cAMP XS+ assay. Media was aspirated from cells and replaced with 15 μl 2:1 HBSS/10mM Hepes:cAMP XS+ Ab reagent. Intermediate dilution of sample stocks was performed to generate 4X sample in assay buffer, and 5 μl of 4X sample was added to cells and incubated at 37C or room temperature for the appropriate time. Vehicle concentration was 1%.
Microplates were read with a PerkinElmer instrument for chemiluminescent signal detection.

Sequence of CLR/RAMP2 receptor complex (Q16602 23-461, chain 1 of 2): as the sequence (Q16602 23-461) above
Sequence of CLR/RAMP2 receptor complex (O60895 43-175, chain 2 of 2, further chain): as the sequence (O60895 43-175) above
Sequence of CLR/RAMP1 receptor complex (Q16602 23-461, chain 1 of 2): as the sequence (Q16602 23-461) above
Sequence of CLR/RAMP1 receptor complex (O60894 27-148, chain 2 of 2, further chain): as the sequence (O60894 27-148) above

Compound | IC50 of inhibition of ADM-mediated CLR/RAMP2 β-arrestin signalling (EC80 of ADM; pair blocked: ADM + m25) [1] | EC50 of CLR/RAMP2 signalling (CHO-K1 cells, PathHunter β-Arrestin assay) [3] | CLR/RAMP2 Max Activity % of control (CLR/RAMP2) | CLR/RAMP1 Max Activity % of control (CLR/RAMP1) | other results
CGRP8-37 (peptide) | > 10000 nM | – | – | – | –
adrenomedullin 2 (peptide) | – | 70 nM | – | – | –
CC[C@H](C)[C@H](NC(=O)[C@H](CCC(N)=O)NC(=O)[C@H](Cc1c[nH]cn1)NC(=O)[C@H](C)NC(=O)[C@H](CC(C)C)NC(=O)[C@H](CCCCN)NC(=O)[C@H](CCC(N)=O)NC(=O)[C@@H](NC(=O)[C@@H](NC(=O)[C@@H]1CSSC[C@H](NC(=O)CNC(=O)[C@@H](N)Cc2ccccc2)C(=O)N[C@@H](CCCNC(=N)N)C(=O)N[C@@H](Cc2ccccc2)C(=O)NCC(=O)N[C@@H]([C@@H](C)O)C(=O)N1)[C@@H](C)O)C(C)C)C(=O)N[C@@H](Cc1ccc(O)cc1)C(=O)N[C@@H](CCC(N)=O)C(=O)N[C@@H](Cc1ccccc1)C(=O)N[C@H](C(=O)N[C@@H](CC(=O)O)C(=O)N[C@@H](CCCCN)C(=O)N[C@@H](CC(=O)O)C(=O)N[C@@H](CCCCN)C(=O)N[C@@H](CC(=O)O)C(=O)N[C@@H](CC(N)=O)C(=O)N[C@H](C(=O)N[C@@H](C)C(=O)N1CCC[C@H]1C(=O)N[C@@H](CCCNC(=N)N)C(=O)N[C@@H](CO)C(=O)N[C@@H](CCCCN)C(=O)N[C@H](C(=O)N[C@@H](CO)C(=O)N1CCC[C@H]1C(=O)N[C@@H](CCC(N)=O)C(=O)NCC(=O)N[C@@H](Cc1ccc(O)cc1)C(N)=O)[C@@H](C)CC)C(C)C)[C@@H](C)O [ADM14-52, adrenomedullin 14–52, reference compound] | – | – | 102 % of control | 69 % of control | –

Now from value to compound, other results behind:

IC50 of inhibition of ADM-mediated CLR/RAMP2 β-arrestin signalling (EC80 of ADM; pair blocked: ADM + m25) [1] | EC50 of CLR/RAMP2 signalling (CHO-K1 cells, PathHunter β-Arrestin assay) [3] | CLR/RAMP2 Max Activity % of control (CLR/RAMP2) | CLR/RAMP1 Max Activity % of control (CLR/RAMP1) | Compound | other results
256 nM | – | – | – | ADM22-52 (peptide) | IC50 of inhibition of CGRP-mediated CLR/RAMP1 cAMP signalling (EC80 of CGRP; pair blocked: m4 + m24) [2]: 6.6 µM
– | 9 nM | – | – | adrenomedullin 14–52 (peptide) | –
– | – | 115 % of control | 95 % of control | CC[C@H](C)[C@H](NC(=O)[C@H](CCC(N)=O)NC(=O)[C@H](Cc1c[nH]cn1)NC(=O)[C@H](C)NC(=O)[C@H](CC(C)C)NC(=O)[C@H](CCCCN)NC(=O)[C@H](CCC(N)=O)NC(=O)[C@@H](NC(=O)[C@@H](NC(=O)[C@@H]1CSSC[C@H](NC(=O)CNC(=O)[C@@H](N)CCCCN)C(=O)N[C@@H](CCCNC(=N)N)C(=O)N[C@@H](Cc2ccccc2)C(=O)NCC(=O)N[C@@H]([C@@H](C)O)C(=O)N1)[C@@H](C)O)C(C)C)C(=O)N[C@@H](Cc1ccc(O)cc1)C(=O)N[C@@H](CCC(N)=O)C(=O)N[C@@H](Cc1ccccc1)C(=O)N[C@H](C(=O)N[C@@H](CC(=O)O)C(=O)N[C@@H](CCCCN)C(=O)N[C@@H](CC(=O)O)C(=O)N[C@@H](CCCCN)C(=O)N[C@@H](CC(=O)O)C(=O)N[C@@H](CC(N)=O)C(=O)N[C@@H](CO)C(=O)N[C@@H](C)C(=O)N1CCC[C@H]1C(=O)N[C@H](C(=O)N[C@@H](CC(=O)O)C(=O)N1CCC[C@H]1C(=O)N[C@@H](CO)C(=O)N[C@@H](CO)C(=O)N1CCC[C@H]1C(=O)N[C@@H](Cc1c[nH]cn1)C(=O)N[C@@H](CO)C(=O)N[C@@H](Cc1ccc(O)cc1)C(N)=O)C(C)C)[C@@H](C)O [Agonist 2] | EC50 (CLR/RAMP2; CHO-K1 cells stably expressing CLR/RAMP2, β-arrestin recruitment, 90 min at 37C, 10-point dose response in duplicate): 18 nM; EC50 (CLR/RAMP1; 1321N1 cells stably expressing CLR/RAMP1, cAMP read-out, chemiluminescence, 10-point dose response, 3-fold dilution, in duplicate): 31 nM
